Numbers after ± are expanded uncertainties.
Assay: mn = molality of the nth substance listed, in mol/kg
Details: Liquid, Vibrating tube method

With `[Br-].[Li+]` [lithium bromide] + CCO the mass density (333.09 K, 10272 kPa, m1 = 2.272) was 902.05 ± 1.8 kg/m3, the mass density (333.1 K, 20223 kPa, m1 = 1.462) was 864.16 ± 1.7 kg/m3 and the mass density (333.11 K, 2291 kPa, m1 = 1.462) was 848.63 ± 1.7 kg/m3. For the same molecule, the mass density (333.11 K, 9932 kPa, m1 = 1.462) was 855.51 ± 1.7 kg/m3, the mass density (333.11 K, 29979 kPa, m1 = 1.462) was 871.75 ± 1.8 kg/m3 and the mass density (333.12 K, 5163 kPa, m1 = 1.462) was 851.27 ± 1.7 kg/m3. The mass density (333.12 K, 39966 kPa, m1 = 1.462) was 878.97 ± 1.8 kg/m3, the mass density (333.12 K, 49993 kPa, m1 = 1.462) was 885.74 ± 1.8 kg/m3 and the mass density (333.12 K, 59791 kPa, m1 = 1.462) was 891.94 ± 1.8 kg/m3. The mass density (333.12 K, 69993 kPa, m1 = 1.462) was 898.03 ± 1.8 kg/m3, the mass density (333.12 K, 79815 kPa, m1 = 1.462) was 903.61 ± 1.9 kg/m3 and the mass density (333.12 K, 89925 kPa, m1 = 1.462) was 909.13 ± 1.9 kg/m3. The mass density (333.12 K, 100027 kPa, m1 = 1.462) was 914.48 ± 1.9 kg/m3, the mass density (333.13 K, 2335 kPa, m1 = 2.272) was 895.03 ± 1.8 kg/m3 and the mass density (333.13 K, 10112 kPa, m1 = 0.5972) was 803.35 ± 1.6 kg/m3. For the same molecule, the mass density (333.13 K, 79924 kPa, m1 = 0.2335) was 831.2 ± 1.8 kg/m3, the mass density (333.14 K, 1023 kPa, m1 = 0.2335) was 771.66 ± 1.6 kg/m3 and the mass density (333.14 K, 1618 kPa, m1 = 3.368) was 952.85 ± 1.9 kg/m3. It also gave a mass density (333.14 K, 5026 kPa, m1 = 2.833) of 927.9 ± 1.9 kg/m3, a mass density (333.14 K, 19985 kPa, m1 = 0.2335) of 789.05 ± 1.6 kg/m3 and a mass density (333.14 K, 40021 kPa, m1 = 2.833) of 953.59 ± 1.9 kg/m3. For the same molecule, the mass density (333.14 K, 80002 kPa, m1 = 2.833) was 976.7 ± 2 kg/m3, the mass density (333.15 K, 1032 kPa, m1 = 2.833) was 924.49 ± 1.9 kg/m3 and the mass density (333.15 K, 1267 kPa, m1 = 0.9499) was 816.76 ± 1.6 kg/m3. It also gave a mass density (333.15 K, 1305 kPa, m1 = 0.9499) of 816.8 ± 1.6 kg/m3, a mass density (333.15 K, 2100 kPa, m1 = 0.5972) of 796.01 ± 1.6 kg/m3 and a mass density (333.15 K, 5177 kPa, m1 = 2.272) of 897.13 ± 1.8 kg/m3. For the same molecule, the mass density (333.15 K, 5214 kPa, m1 = 0.9499) was 820.56 ± 1.6 kg/m3, the mass density (333.15 K, 5223 kPa, m1 = 0.5972) was 798.91 ± 1.6 kg/m3 and the mass density (333.15 K, 9985 kPa, m1 = 2.833) was 931.98 ± 1.9 kg/m3. For the same molecule, the mass density (333.15 K, 10026 kPa, m1 = 0.2335) was 780.15 ± 1.6 kg/m3, the mass density (333.15 K, 19923 kPa, m1 = 0.9499) was 833.66 ± 1.7 kg/m3 and the mass density (333.15 K, 29942 kPa, m1 = 0.9499) was 841.73 ± 1.7 kg/m3. The mass density (333.15 K, 29965 kPa, m1 = 2.833) was 946.88 ± 1.9 kg/m3, the mass density (333.15 K, 40014 kPa, m1 = 0.9499) was 849.24 ± 1.7 kg/m3 and the mass density (333.15 K, 49925 kPa, m1 = 2.833) was 959.77 ± 1.9 kg/m3. The mass density (333.15 K, 50021 kPa, m1 = 0.2335) was 812.76 ± 1.7 kg/m3, the mass density (333.15 K, 50078 kPa, m1 = 0.9499) was 856.2 ± 1.8 kg/m3 and the mass density (333.15 K, 59924 kPa, m1 = 0.9499) was 862.57 ± 1.8 kg/m3. The mass density (333.15 K, 60012 kPa, m1 = 0.2335) was 819.01 ± 1.7 kg/m3, the mass density (333.15 K, 60159 kPa, m1 = 0.5972) was 841.68 ± 1.7 kg/m3 and the mass density (333.15 K, 69784 kPa, m1 = 2.833) was 971.18 ± 1.9 kg/m3. It also gave a mass density (333.15 K, 69794 kPa, m1 = 0.9499) of 868.58 ± 1.8 kg/m3, a mass density (333.15 K, 69985 kPa, m1 = 0.2335) of 825.32 ± 1.7 kg/m3 and a mass density (333.15 K, 79935 kPa, m1 = 0.9499) of 874.45 ± 1.8 kg/m3. For the same molecule, the mass density (333.15 K, 89956 kPa, m1 = 2.833) was 981.93 ± 2 kg/m3, the mass density (333.15 K, 89965 kPa, m1 = 0.2335) was 837.01 ± 1.8 kg/m3 and the mass density (333.15 K, 89984 kPa, m1 = 0.9499) was 880.02 ± 1.8 kg/m3. The mass density (333.15 K, 99907 kPa, m1 = 2.272) was 958.17 ± 1.9 kg/m3, the mass density (333.15 K, 99958 kPa, m1 = 0.2335) was 842.17 ± 1.8 kg/m3 and the mass density (333.15 K, 99967 kPa, m1 = 2.833) was 987.14 ± 2 kg/m3. The mass density (333.15 K, 99986 kPa, m1 = 0.9499) was 885.41 ± 1.9 kg/m3, the mass density (333.16 K, 5021 kPa, m1 = 0.2335) was 775.49 ± 1.6 kg/m3 and the mass density (333.16 K, 19968 kPa, m1 = 2.833) was 939.71 ± 1.9 kg/m3. For the same molecule, the mass density (333.16 K, 20295 kPa, m1 = 0.5972) was 812.23 ± 1.6 kg/m3, the mass density (333.16 K, 29945 kPa, m1 = 0.2335) was 797.44 ± 1.6 kg/m3 and the mass density (333.16 K, 29996 kPa, m1 = 0.5972) was 820.22 ± 1.7 kg/m3. For the same molecule, the mass density (333.16 K, 49994 kPa, m1 = 0.5972) was 835.21 ± 1.7 kg/m3, the mass density (333.16 K, 59945 kPa, m1 = 2.833) was 965.67 ± 1.9 kg/m3 and the mass density (333.16 K, 69994 kPa, m1 = 0.5972) was 847.73 ± 1.8 kg/m3. For the same molecule, the mass density (333.16 K, 80063 kPa, m1 = 0.5972) was 854.04 ± 1.8 kg/m3, the mass density (333.16 K, 89993 kPa, m1 = 0.5972) was 859.28 ± 1.8 kg/m3 and the mass density (333.16 K, 100035 kPa, m1 = 0.5972) was 864.08 ± 1.8 kg/m3. The mass density (333.17 K, 39784 kPa, m1 = 0.2335) was 805.21 ± 1.7 kg/m3, the mass density (333.17 K, 40191 kPa, m1 = 0.5972) was 828.11 ± 1.7 kg/m3 and the mass density (333.17 K, 89994 kPa, m1 = 2.272) was 952.98 ± 1.9 kg/m3. It also gave a mass density (333.17 K, 99575 kPa, m1 = 3.368) of 1013.64 ± 2.1 kg/m3, a mass density (333.18 K, 19918 kPa, m1 = 3.368) of 967.06 ± 1.9 kg/m3 and a mass density (333.18 K, 20737 kPa, m1 = 2.272) of 910.39 ± 1.8 kg/m3. It also gave a mass density (333.18 K, 29946 kPa, m1 = 3.368) of 974.09 ± 1.9 kg/m3, a mass density (333.18 K, 29993 kPa, m1 = 2.272) of 917.22 ± 1.8 kg/m3 and a mass density (333.18 K, 39652 kPa, m1 = 3.368) of 980.47 ± 2 kg/m3. The mass density (333.18 K, 40158 kPa, m1 = 2.272) was 924.19 ± 1.9 kg/m3, the mass density (333.18 K, 49954 kPa, m1 = 2.272) was 930.45 ± 1.9 kg/m3 and the mass density (333.18 K, 49993 kPa, m1 = 3.368) was 986.85 ± 2 kg/m3. For the same molecule, the mass density (333.18 K, 59593 kPa, m1 = 3.368) was 992.46 ± 2 kg/m3, the mass density (333.18 K, 60271 kPa, m1 = 2.272) was 936.65 ± 1.9 kg/m3 and the mass density (333.18 K, 69927 kPa, m1 = 3.368) was 998.21 ± 2 kg/m3. The mass density (333.18 K, 69979 kPa, m1 = 2.272) was 942.19 ± 1.9 kg/m3, the mass density (333.18 K, 79359 kPa, m1 = 2.272) was 947.33 ± 1.9 kg/m3 and the mass density (333.18 K, 79861 kPa, m1 = 3.368) was 1003.51 ± 2 kg/m3. The mass density (333.18 K, 89946 kPa, m1 = 3.368) was 1008.74 ± 2 kg/m3, the mass density (333.19 K, 5051 kPa, m1 = 3.368) was 955.66 ± 1.9 kg/m3 and the mass density (333.19 K, 9894 kPa, m1 = 3.368) was 959.51 ± 1.9 kg/m3. The mass density (348.13 K, 29954 kPa, m1 = 0.2335) was 785.62 ± 1.6 kg/m3, the mass density (348.13 K, 59964 kPa, m1 = 2.833) was 956.11 ± 1.9 kg/m3 and the mass density (348.14 K, 9989 kPa, m1 = 2.833) was 920.29 ± 1.8 kg/m3. It also gave a mass density (348.14 K, 10032 kPa, m1 = 0.2335) of 766.83 ± 1.6 kg/m3, a mass density (348.14 K, 10035 kPa, m1 = 0.5972) of 790.37 ± 1.6 kg/m3 and a mass density (348.14 K, 19956 kPa, m1 = 2.272) of 898.47 ± 1.8 kg/m3. For the same molecule, the mass density (348.14 K, 19956 kPa, m1 = 3.368) was 955.83 ± 1.9 kg/m3, the mass density (348.14 K, 29914 kPa, m1 = 0.5972) was 809.07 ± 1.6 kg/m3 and the mass density (348.14 K, 30021 kPa, m1 = 1.462) was 860.82 ± 1.7 kg/m3. The mass density (348.14 K, 39925 kPa, m1 = 2.272) was 913.47 ± 1.8 kg/m3, the mass density (348.14 K, 50012 kPa, m1 = 0.5972) was 824.77 ± 1.7 kg/m3 and the mass density (348.14 K, 69957 kPa, m1 = 3.368) was 988.75 ± 2 kg/m3. For the same molecule, the mass density (348.14 K, 79624 kPa, m1 = 2.272) was 938.32 ± 1.9 kg/m3, the mass density (348.14 K, 89957 kPa, m1 = 0.5972) was 850.38 ± 1.8 kg/m3 and the mass density (348.15 K, 1002 kPa, m1 = 0.5972) was 781.38 ± 1.6 kg/m3. It also gave a mass density (348.15 K, 1002 kPa, m1 = 3.368) of 940.13 ± 1.9 kg/m3, a mass density (348.15 K, 1003 kPa, m1 = 2.272) of 881.25 ± 1.8 kg/m3 and a mass density (348.15 K, 1024 kPa, m1 = 0.2335) of 757.55 ± 1.5 kg/m3. The mass density (348.15 K, 1035 kPa, m1 = 2.833) was 912.41 ± 1.8 kg/m3, the mass density (348.15 K, 1304 kPa, m1 = 0.9499) was 803.97 ± 1.6 kg/m3 and the mass density (348.15 K, 2021 kPa, m1 = 1.462) was 835.77 ± 1.7 kg/m3.

— the NIST ThermoML archive (doi:10.1021/je1003065)
